Experimental data published in ChEMBL document CHEMBL4304794.
Activity calls are given as the source filed them. The calls are words filed in the database; no cut-off is given here.

How the values were obtained:
[1] = target: Programmed cell death 1 ligand 1 (Mus musculus) (UniProt Q9EP73); assay: Inhibition of recombinant mouse N-terminal PDL1 (19 to 238 residues) assessed as recovery of mouse splenocyte proliferation at 100 nM by CFSE-based FACS analysis relative to control
[2] = target: Programmed cell death protein 1 (Homo sapiens) (UniProt Q15116); assay: Binding affinity to biotinylated recombinant human C-terminal FC -tagged PD1 (25 to 167 residues) at 0.3 to 300 uM by SPR analysis
[3] = target: Programmed cell death 1 ligand 1 (Homo sapiens) (UniProt Q9NZQ7); assay: Inhibition of PDL1 in human […] cells assessed as recovery of mouse splenocyte proliferation at 100 nM by CFSE-based FACS analysis relative to control; assay type: cell-based
Sequence of Programmed cell death 1 ligand 1 (Homo sapiens) (Q9NZQ7 whole entry): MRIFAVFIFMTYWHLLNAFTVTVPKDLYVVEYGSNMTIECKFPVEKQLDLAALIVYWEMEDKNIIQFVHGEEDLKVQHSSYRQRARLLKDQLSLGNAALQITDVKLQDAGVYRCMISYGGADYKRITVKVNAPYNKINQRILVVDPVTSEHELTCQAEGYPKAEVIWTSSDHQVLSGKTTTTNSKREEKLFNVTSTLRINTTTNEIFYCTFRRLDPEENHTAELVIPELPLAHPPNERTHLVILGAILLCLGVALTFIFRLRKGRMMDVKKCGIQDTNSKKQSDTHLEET

Sequence of Programmed cell death protein 1 (Homo sapiens) (Q15116 whole entry, the tested form may be a part): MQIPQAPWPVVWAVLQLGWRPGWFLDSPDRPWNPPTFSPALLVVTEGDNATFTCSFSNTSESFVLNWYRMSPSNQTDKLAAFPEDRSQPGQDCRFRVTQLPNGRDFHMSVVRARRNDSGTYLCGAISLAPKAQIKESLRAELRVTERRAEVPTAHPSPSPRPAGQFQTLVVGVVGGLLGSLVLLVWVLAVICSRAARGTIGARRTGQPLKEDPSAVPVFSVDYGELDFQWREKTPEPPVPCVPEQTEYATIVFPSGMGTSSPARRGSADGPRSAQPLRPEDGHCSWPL
Sequence of Programmed cell death 1 ligand 1 (Mus musculus) (Q9EP73 whole entry, the tested form may be a part): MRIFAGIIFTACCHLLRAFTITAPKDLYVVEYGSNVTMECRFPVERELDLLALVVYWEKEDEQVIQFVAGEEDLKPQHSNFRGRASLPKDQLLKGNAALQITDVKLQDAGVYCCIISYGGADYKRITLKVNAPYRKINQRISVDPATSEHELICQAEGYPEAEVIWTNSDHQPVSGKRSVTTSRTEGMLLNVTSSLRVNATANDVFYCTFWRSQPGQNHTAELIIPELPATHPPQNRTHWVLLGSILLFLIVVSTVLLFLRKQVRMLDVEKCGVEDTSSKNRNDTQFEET

| SMILES | inhibition [1] [%] | Activity [2] | inhibition [3] [%] |
| --- | --- | --- | --- |
| NC(=O)C[C@H](N)c1nc([C@@H](N)CO)no1 | 93 | inactive | – |
| C#CC[C@H](NC(=O)N[C@H](C(=O)O)[C@@H](C)O)c1nc(-c2cnccn2)no1 | 92 | inactive | – |
| C[C@@H](O)[C@H](NC(=O)N[C@@H](CC(N)=O)C(=O)NNC(=O)[C@@H](N)CO)C(=O)O | – | inactive | 68 |
